Data taken from patent publication US10683269B2 (MISSION THERAPEUTICS LIMITED, priority 2016, dated 2020).

Each compound was assayed against T1, USP7 (Homo sapiens, UniProt Q93009) (assay: USP7 biochemical IC50 assay (fluorescence polarisation, TAMRA labelled peptide linked to ubiquitin via an iso-peptide bond)). Conditions: 30 min pre-incubation of enzyme and compound, read after 2 hr incubation at room temperature, read-out: IC50 range.
T1 construct: The USP7 construct was PCR amplified and cloned into a pFLAG-CMV-6a vector (Sigma-Aldrich) with an N-terminal FLAG tag; made in house; host or cells: HEK293T
T1 sequence (Q93009 whole entry): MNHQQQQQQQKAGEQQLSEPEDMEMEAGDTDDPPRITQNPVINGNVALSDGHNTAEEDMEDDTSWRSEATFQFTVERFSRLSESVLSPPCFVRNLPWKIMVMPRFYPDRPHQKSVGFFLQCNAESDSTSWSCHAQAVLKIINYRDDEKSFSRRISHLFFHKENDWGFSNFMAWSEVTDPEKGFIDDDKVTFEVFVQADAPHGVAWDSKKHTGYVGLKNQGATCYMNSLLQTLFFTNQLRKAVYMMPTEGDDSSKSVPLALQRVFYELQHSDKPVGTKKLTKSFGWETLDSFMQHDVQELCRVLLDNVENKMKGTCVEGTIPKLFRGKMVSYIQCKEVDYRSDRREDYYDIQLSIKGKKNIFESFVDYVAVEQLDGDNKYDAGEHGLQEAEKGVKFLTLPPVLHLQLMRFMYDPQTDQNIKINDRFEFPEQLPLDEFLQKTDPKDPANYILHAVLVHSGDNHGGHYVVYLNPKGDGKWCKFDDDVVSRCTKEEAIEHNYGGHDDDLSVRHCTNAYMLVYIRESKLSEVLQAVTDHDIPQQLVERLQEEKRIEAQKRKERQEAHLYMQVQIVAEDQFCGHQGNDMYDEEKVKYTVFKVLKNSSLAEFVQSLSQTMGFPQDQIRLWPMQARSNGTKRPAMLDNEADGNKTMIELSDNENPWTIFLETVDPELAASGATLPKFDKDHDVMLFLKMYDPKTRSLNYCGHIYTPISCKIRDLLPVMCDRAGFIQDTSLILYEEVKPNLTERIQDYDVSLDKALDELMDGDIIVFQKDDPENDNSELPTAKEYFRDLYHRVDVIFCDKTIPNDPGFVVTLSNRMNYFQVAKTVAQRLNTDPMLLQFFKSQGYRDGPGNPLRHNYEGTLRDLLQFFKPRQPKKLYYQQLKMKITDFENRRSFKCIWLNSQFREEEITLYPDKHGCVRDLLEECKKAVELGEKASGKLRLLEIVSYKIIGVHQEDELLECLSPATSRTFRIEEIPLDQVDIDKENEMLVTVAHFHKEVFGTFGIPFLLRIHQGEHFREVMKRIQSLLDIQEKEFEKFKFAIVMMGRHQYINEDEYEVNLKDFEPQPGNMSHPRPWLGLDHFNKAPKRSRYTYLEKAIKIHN
How it was run: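 Fluorescence polarisation at 540 nm excitation/590 nm emission, read immediately and after 2 hr at room temperature, following addition of 50 nM TAMRA-labelled iso-peptide ubiquitin substrate.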
Work on `N#CN1Cc2nc(NCCc3ccccn3)nc(-c3ccccc3)c2C1` [Example 114, 4-phenyl-2-((2-(pyridin-2-yl)ethyl)amino)-5,7-dihydro-6H-pyrrolo[3,4-d]pyrimidine-6-carbonitrile] yielded an IC50 of 1 to 10 µM.
With `N#CN1Cc2nc(NC3CCCc4ccccc43)nc(-c3ccccc3)c2C1` (stereo not shown) [Example 115, 4-phenyl-2-((1,2,3,4-tetrahydronaphthalen-1-yl)amino)-5,7-dihydro-6H-pyrrolo[3,4-d]pyrimidine-6-carbonitrile] the IC50 was 10 to 30 µM.
`N#CN1Cc2nc(Nc3ccccc3)nc(-c3ccccc3)c2C1` [Example 116, 4-phenyl-2-(phenylamino)-5,7-dihydro-6H-pyrrolo[3,4-d]pyrimidine-6-carbonitrile] was tested, and the IC50 was 1 to 10 µM.
With `N#CN1Cc2nc(NCc3ccccn3)nc(-c3ccccc3)c2C1` [Example 117, 4-phenyl-2-((pyridin-2-ylmethyl)amino)-5,7-dihydro-6H-pyrrolo[3,4-d]pyrimidine-6-carbonitrile] the IC50 was 1 to 10 µM.
`N#CN1Cc2nc(NCc3cccnc3)nc(-c3ccccc3)c2C1` [Example 118, 4-phenyl-2-((pyridin-3-ylmethyl)amino)-5,7-dihydro-6H-pyrrolo[3,4-d]pyrimidine-6-carbonitrile] showed an IC50 of 1 to 10 µM.
In the case of `N#CN1Cc2nc(NCc3cncs3)nc(-c3ccccc3)c2C1` [Example 119, 4-phenyl-2-((thiazol-5-ylmethyl)amino)-5,7-dihydro-6H-pyrrolo[3,4-d]pyrimidine-6-carbonitrile], the IC50 is reported as 1 to 10 µM.
Compound `N#CN1Cc2nc(NCCO)nc(-c3ccccc3)c2C1` [Example 120, 2-((2-hydroxyethyl)amino)-4-phenyl-5,7-dihydro-6H-pyrrolo[3,4-d]pyrimidine-6-carbonitrile] has an IC50 of 1 to 10 µM.
With `N#CN1Cc2nc(NCc3ccco3)nc(-c3ccccc3)c2C1` [Example 121, 2-((furan-2-ylmethyl)amino)-4-phenyl-5,7-dihydro-6H-pyrrolo[3,4-d]pyrimidine-6-carbonitrile] the IC50 was 10 to 30 µM.
`N#CN1Cc2nc(NCCCn3ccnc3)nc(-c3ccccc3)c2C1` [Example 122, 2-((3-(1H-imidazol-1-yl)propyl)amino)-4-phenyl-5,7-dihydro-6H-pyrrolo[3,4-d]pyrimidine-6-carbonitrile] gave an IC50 of 1 to 10 µM.
For `CCNc1nc2c(c(-c3ccccc3C(N)=O)n1)CN(C#N)C2` [Example 123, 2-(6-cyano-2-(ethylamino)-6,7-dihydro-5H-pyrrolo[3,4-c]pyrimidin-4-yl)benzamide], the IC50 was 10 to 30 µM.
`CN1CCOC(CNc2nc3c(c(-c4ccccc4)n2)CN(C#N)C3)C1` (stereo not shown) [Example 124, 2-(((4-methylmorpholin-2-yl)methyl)amino)-4-phenyl-5,7-dihydro-6H-pyrrolo[3,4-d]pyrimidine-6-carbonitrile] was tested, and the IC50 was 1 to 10 µM.
`CN1CCCC(CNc2nc3c(c(-c4ccccc4)n2)CN(C#N)C3)C1` (stereo not shown) [Example 125, 2-(((1-methylpiperidin-3-yl)methyl)amino)-4-phenyl-5,7-dihydro-6H-pyrrolo[3,4-d]pyrimidine-6-carbonitrile] was tested, and the IC50 was 1 to 10 µM.
`Cn1nccc1CNc1nc2c(c(-c3ccccc3)n1)CN(C#N)C2` [Example 126, 2-(((1-methyl-1H-pyrazol-5-yl)methyl)amino)-4-phenyl-5,7-dihydro-6H-pyrrolo[3,4-d]pyrimidine-6-carbonitrile] was tested, and the IC50 was 1 to 10 µM.
With `CN1CCC(CNc2nc3c(c(-c4ccccc4)n2)CN(C#N)C3)C1` (stereo not shown) [Example 127, 2-(((1-methylpyrrolidin-3-yl)methyl)amino)-4-phenyl-5,7-dihydro-6H-pyrrolo[3,4-d]pyrimidine-6-carbonitrile] the IC50 was 1 to 10 µM.
`CC(=O)Nc1nc2c(c(N3CCc4ccccc4C3)n1)CN(C#N)C2` [Example 128, N-(6-cyano-4-(3,4-dihydroisoquinolin-2(1H)-yl)-6,7-dihydro-5H-pyrrolo[3,4-d]pyrimidin-2-yl)acetamide] was tested, and the IC50 was 1 to 10 µM.
`N#CN1Cc2nc(NC(=O)C3CNC(=O)C3)nc(-c3ccccc3)c2C1` (stereo not shown) [Example 129, N-(6-cyano-4-phenyl-6,7-dihydro-5H-pyrrolo[3,4-c]pyrimidin-2-yl)-5-oxopyrrolidine-3-carboxamide] was tested, and the IC50 was 10 to 30 µM.
`COc1ccc(-c2nc3c(c(N4CCCC4)n2)CN(C#N)C3)cc1` [Example 130, 2-(4-methoxyphenyl)-4-(pyrrolidin-1-yl)-5,7-dihydro-6H-pyrrolo[3,4-c]pyrimidine-6-carbonitrile] showed an IC50 of 10 to 30 µM.
For `N#CN1Cc2nc(-c3ccccc3)nc(N3CCCC3C(N)=O)c2C1` (stereo not shown) [Example 131, 1-(6-cyano-2-phenyl-6,7-dihydro-5H-pyrrolo[3,4-d]pyrimidin-4-yl)pyrrolidine-2-carboxamide], the IC50 was 10 to 30 µM.
`N#CN1Cc2nc(-c3ccccc3)nc(NCC(N)=O)c2C1` [Example 132, 2-((6-cyano-2-phenyl-6,7-dihydro-5H-pyrrolo[3,4-d]pyrimidin-4-yl)amino)acetamide] gave an IC50 of 10 to 30 µM.
Work on `CNC(=O)C1CCCN1c1nc(-c2ccccc2)nc2c1CN(C#N)C2` (stereo not shown) [Example 133, 1-(6-cyano-2-phenyl-6,7-dihydro-5H-pyrrolo[3,4-d]pyrimidin-4-yl)-N-methylpyrrolidine-2-carboxamide] yielded an IC50 of 10 to 30 µM.
In the case of `Cc1[nH]ncc1-c1nc2c(c(N3CCCC3)n1)CN(C#N)C2` [Example 134, 2-(5-methyl-1H-pyrazol-4-yl)-4-(pyrrolidin-1-yl)-5,7-dihydro-6H-pyrrolo[3,4-d]pyrimidine-6-carbonitrile], the IC50 is reported as 10 to 30 µM.
`COc1ccccc1-c1nc2c(c(N3CCCC3)n1)CN(C#N)C2` [Example 135, 2-(2-methoxyphenyl)-4-(pyrrolidin-1-yl)-5,7-dihydro-6H-pyrrolo[3,4-d]pyrimidine-6-carbonitrile] showed an IC50 of 1 to 10 µM.
Compound `COc1cccc(-c2nc3c(c(N4CCCC4)n2)CN(C#N)C3)c1` [Example 136, 2-(3-methoxyphenyl)-4-(pyrrolidin-1-yl)-5,7-dihydro-6H-pyrrolo[3,4-d]pyrimidine-6-carbonitrile] has an IC50 of 30 to 100 µM.
For `N#CN1Cc2nc(-c3cccnc3)nc(N3CCCC3)c2C1` [Example 137, 2-(pyridin-3-yl)-4-(pyrrolidin-1-yl)-5,7-dihydro-6H-pyrrolo[3,4-d]pyrimidine-6-carbonitrile], the IC50 was 1 to 10 µM.
Compound `N#CN1Cc2nc(-c3ccccc3C(N)=O)nc(N3CCc4ccccc4C3)c2C1` [Example 138, 2-(6-cyano-4-(3,4-dihydroisoquinolin-2(1H)-yl)-6,7-dihydro-5H-pyrrolo[3,4-d]pyrimidin-2-yl)benzamide] has an IC50 of 1 to 10 µM.
In the case of `Cc1[nH]ncc1-c1nc2c(c(N3CCc4ccccc4C3)n1)CN(C#N)C2` [Example 139, 4-(3,4-dihydroisoquinolin-2(1H)-yl)-2-(5-methyl-1H-pyrazol-4-yl)-5,7-dihydro-6H-pyrrolo[3,4-d]pyrimidine-6-carbonitrile], the IC50 is reported as 1 to 10 µM.
For `COc1ccccc1-c1nc2c(c(N3CCc4ccccc4C3)n1)CN(C#N)C2` [Example 140, 4-(3,4-dihydroisoquinolin-2(1H)-yl)-2-(2-methoxyphenyl)-5,7-dihydro-6H-pyrrolo[3,4-d]pyrimidine-6-carbonitrile], the IC50 was 1 to 10 µM.
For `N#Cc1cccc(-c2nc3c(c(N4CCc5ccccc5C4)n2)CN(C#N)C3)c1` [Example 141, 2-(3-cyanophenyl)-4-(3,4-dihydroisoquinolin-2(1H)-yl)-5,7-dihydro-6H-pyrrolo[3,4-d]pyrimidine-6-carbonitrile], the IC50 was 1 to 10 µM.
